Source: US20070049564A1 (Wyeth, priority 2005, published 2007)
Values after ≈ are worked out from the molar mass of the structure shown. Read-outs that look alike come from different tables or passages of the source.

What was measured:
[1] = system: E. coli GC 2236; test: MIC, broth microdilution; details: Escherichia coli, GC2236, E. coli GC 2236
[2] = system: E. coli GC 2231; test: MIC, broth microdilution; details: Escherichia coli, GC2231, E. coli GC 2231
[3] = system: E. coli GC 2232; test: MIC, broth microdilution; details: Escherichia coli, GC2232, E. coli GC 2232
[4] = system: E. coli GC 2272; test: MIC, broth microdilution; details: Escherichia coli, GC2272, E. coli GC 2272
[5] = system: P. aeruginosa GC 2214; test: MIC, broth microdilution; details: Pseudomonas aeruginosa, GC2214, P. aeruginosa GC 2214
[6] = system: S. aureus GC 1131; test: MIC, broth microdilution; details: Staphylococcus aureus, GC1131, S. aureus GC 1131
[7] = system: S. aureus GC 4536; test: MIC, broth microdilution; details: Staphylococcus aureus, GC4536, S. aureus GC 4536
[8] = system: S. aureus GC 2216; test: MIC, broth microdilution; details: Staphylococcus aureus, GC2216, S. aureus GC 2216
[9] = system: S. epidermidis GC 4935; test: MIC, broth microdilution; details: Staphylococcus epidermidis, GC4935, S. epidermidis GC 4935
[10] = system: E. faecalis GC 4555; test: MIC, broth microdilution; details: Enterococcus faecalis, GC4555, E. faecalis GC 4555
[11] = system: E. faecalis GC 2265; test: MIC, broth microdilution; details: Enterococcus faecalis, GC2265, E. faecalis GC 2265
[12] = system: E. faecalis GC 2267; test: MIC, broth microdilution; details: Enterococcus faecalis, GC2267, E. faecalis GC 2267
[13] = system: E. faecalis GC 2242; test: MIC, broth microdilution; details: Enterococcus faecalis, GC2242, E. faecalis GC 2242
[14] = system: E. faecium GC 2243; test: MIC, broth microdilution; details: Enterococcus faecium, GC2243, E. faecium GC 2243
[15] = system: S. pneumoniae* GC 4465; test: MIC, broth microdilution; details: Streptococcus pneumoniae, S. pneumoniae* GC 4465
[16] = system: S. pneumoniae+ GC 4465; test: MIC, broth microdilution; details: Streptococcus pneumoniae, S. pneumoniae+ GC 4465
[17] = system: c. albicans GC 3066; test: MIC, broth microdilution
[18] = system: E. coli; test: Range of MIC for E. coli strains; details: Escherichia coli
[19] = system: Staph.; test: Range of MIC for Staph. strains, including MRSA; details: Staphylococcus aureus, MRSA
[20] = system: Staph. aureus Smith; test: In vivo activity (oral, iv; ED50) against Staph. aureus Smith in mice
Experimental: Representative examples of compounds of Formula I were tested for the oral efficacy using S. aureus Smith in mice.

Compound: CCCCN(CC(=O)Nc1cc(N(C)C)c2c(c1O)C(=O)C1=C(O)[C@]3(O)C(=O)C(C(N)=O)=C(O)[C@@H](N(C)C)[C@@H]3C[C@@H]1C2)C(=O)OCOC(=O)C(C)(C)C [Example 13, ({[(2-{[(5aR,6aS,7S,10aS)-9-(aminocarbonyl)-4,7-bis(dimethylamino)-1,8,10a,11-tetrahydroxy-10,12-dioxo-5,5a,6,6a,7,10,10a,12-octahydrotetracen-2-yl]amino}-2-oxoethyl)(butyl)amino]carbonyl}oxy)methyl pivalate]
- MIC ([1]; Mouse Serum pre-incubation): 2 µg/mL (≈ 2.69 µM)
- MIC ([1]; Water pre-incubation): 8 µg/mL (≈ 10.8 µM)
- MIC ([2]; Mouse Serum pre-incubation): 2 µg/mL (≈ 2.69 µM)
- MIC ([2]; Water pre-incubation): 16 µg/mL (≈ 21.5 µM)
- MIC ([3]; Mouse Serum pre-incubation): 2 µg/mL (≈ 2.69 µM)
- MIC ([3]; Water pre-incubation): 8 µg/mL (≈ 10.8 µM)
- MIC ([4]; Mouse Serum pre-incubation): 2 µg/mL (≈ 2.69 µM)
- MIC ([4]; Water pre-incubation): 8 µg/mL (≈ 10.8 µM)
- MIC ([5]; Mouse Serum pre-incubation): 32 µg/mL (≈ 43 µM)
- MIC ([5]; Water pre-incubation): > 64 µg/mL
- MIC ([6]; Mouse Serum pre-incubation): 2 µg/mL (≈ 2.69 µM)
- MIC ([6]; Water pre-incubation): 2 µg/mL (≈ 2.69 µM)
- MIC ([7]; Mouse Serum pre-incubation): 1 µg/mL (≈ 1.34 µM)
- MIC ([7]; Water pre-incubation): 2 µg/mL (≈ 2.69 µM)
- MIC ([8]; Mouse Serum pre-incubation): 2 µg/mL (≈ 2.69 µM)
- MIC ([8]; Water pre-incubation): 4 µg/mL (≈ 5.38 µM)
- MIC ([9]; Mouse Serum pre-incubation): 4 µg/mL (≈ 5.38 µM)
- MIC ([9]; Water pre-incubation): 8 µg/mL (≈ 10.8 µM)
- MIC ([10]; Mouse Serum pre-incubation): 2 µg/mL (≈ 2.69 µM)
- MIC ([10]; Water pre-incubation): 4 µg/mL (≈ 5.38 µM)
- MIC ([11]; Mouse Serum pre-incubation): 4 µg/mL (≈ 5.38 µM)
- MIC ([11]; Water pre-incubation): 8 µg/mL (≈ 10.8 µM)
- MIC ([12]; Mouse Serum pre-incubation): 4 µg/mL (≈ 5.38 µM)
- MIC ([12]; Water pre-incubation): 8 µg/mL (≈ 10.8 µM)
- MIC ([13]; Mouse Serum pre-incubation): 4 µg/mL (≈ 5.38 µM)
- MIC ([13]; Water pre-incubation): 8 µg/mL (≈ 10.8 µM)
- MIC ([14]; Mouse Serum pre-incubation): 2 µg/mL (≈ 2.69 µM)
- MIC ([14]; Water pre-incubation): 4 µg/mL (≈ 5.38 µM)
- MIC ([15]; Mouse Serum pre-incubation): 0.5 µg/mL (≈ 0.672 µM)
- MIC ([15]; Water pre-incubation): 0.5 µg/mL (≈ 0.672 µM)
- MIC ([16]; Mouse Serum pre-incubation): 8 µg/mL (≈ 10.8 µM)
- MIC ([16]; Water pre-incubation): 8 µg/mL (≈ 10.8 µM)
- MIC ([17]; Candida albicans, GC3066): > 64 µg/mL
- MIC ([17]; c. albicans GC 3066, Water pre-incubation): >64 UG/ML
- MIC ([18]; 20 h, read-out: Range of MIC, E. coli (Mouse Serum)): 1 to 4 µg/mL (≈ 1.34 to 5.38 µM)
- MIC ([18]; read-out: Minimum inhibitory concentration (MIC), E. coli (mouse serum)): 1 to 4 µg/mL (≈ 1.34 to 5.38 µM)
- MIC ([18]; read-out: Minimum inhibitory concentration (MIC), E. coli (water)): 8 to 16 µg/mL (≈ 10.8 to 21.5 µM)
- MIC ([18]; read-out: Range of MIC, E. coli (Water)): 8 to 16 µg/mL (≈ 10.8 to 21.5 µM)
- MIC ([19]; read-out: Minimum inhibitory concentration (MIC), Staph. (mouse serum)): 1 to 4 µg/mL (≈ 1.34 to 5.38 µM)
- MIC ([19]; read-out: Minimum inhibitory concentration (MIC), Staph. (water)): 2 to 8 µg/mL (≈ 2.69 to 10.8 µM)
- MIC ([19]; read-out: Range of MIC, Staph (Mouse Serum)): 1 to 4 µg/mL (≈ 1.34 to 5.38 µM)
- MIC ([19]; read-out: Range of MIC, Staph (Water)): 2 to 8 µg/mL (≈ 2.69 to 10.8 µM)
- ED50 ([20]; Staphylococcus aureus, in Mus musculus, po, read-out: ED50 Staph Smith SOD): 11 mg/kg
- ED50 ([20]; iv, read-out: ED50 Staph Smith SIV): 0.82 mg/kg
